Reference: US20090054368A1, “Substituted gemini surfactant compounds” (University of Saskatchewan, priority 2007, published 2009)
“Also recorded” adds a separate entry of the source.

Tests used:
[1] = test system: COS-7 African Green monkey kidney fibroblast cells; assay: Transfection assay (luciferase production after transfection with plasmid DNA-gemini surfactant complexes); assay type: cell-based
Protocol: COS-7 African Green monkey kidney fibroblast cells (ATCC CRL1651) were prepared for transfection in antibiotic and 10% fetal bovine serum supplemented minimal Eagle's medium (MEM). The day before transfection, 5×10^4 cells/well were seeded in 24-well plates (Greiner Labortechnik GmbH, Germany). The supplemented MEM was changed to MEM one hour prior to transfection.
The pMASIA.Luc plasmid DNA was used at a concentration of 0.2 μg/well for transfection. The transfection mixtures were prepared as follows: 0.2 μg of plasmid DNA was mixed with aliquots of gemini surfactant solution to obtain a plasmid DNA:gemini surfactant charge ratio of 1:10 and incubated at room temperature for 15 minutes. To this mixture, 25 μL of DOPE liposomes were added. The transfection mixtures were incubated for 30 minutes at room temperature prior to transfection and added to the cells, dropwise. The plates were incubated for 5 hours at 37° C. in a CO2 incubator. Dc-Chol (30-[N—(N′,N′-Dimethylaminoethane)-carbamoyl]cholesterol) was used for comparison and, as a positive control, cells were also transfected with Lipofectamine Plus™ Reagent (Invitrogen Life Technologies, Carlsbad, Calif.), according to the manufacturer's protocol, with 0.2 μg of plasmid DNA per well.
Luciferase production was quantified using the Promega Steady-Glo™ luciferase assay system. Luminescence was monitored using a Turner Biosystems (Sunnyvale, Calif., USA) Reporter microplate luminometer. Statistical analysis was performed using ANOVA and Tukey's multiple comparison test. […] Equal variances were tested using Bartlett's test, and normality by the D'Agostino & Pearson omnibus normality test.

[2] = from reference [24]; cited from earlier work
[3] = test system: COS-7 African Green monkey kidney fibroblast cells; assay: Transfection assay (luciferase production after transfection with plasmid DNA-gemini surfactant complexes); assay type: cell-based; settings: PG complexes, complexed with DNA in the absence of helper lipid (DOPE)
[4] = test system: plasmid DNA; assay: Circular dichroism of plasmid DNA-gemini surfactant complexes; assay type: physicochemical; settings: with or without DOPE
Protocol: CD spectra were obtained by using an Applied Photo Physics π*180 instrument (Leatherhead, UK) with a 4 nm slit, at room temperature.
(§1) Solutions for size, zeta potential, and circular dichrosicm (CD) measurements were prepared, in larger volumes, as described above for the transfection experiments using a pGTmCMV.IFN-GFP plasmid DNA, previously constructed in our lab. Solutions containing only surfactant and plasmid DNA were prepared by addition of an aliquot of stock plasmid DNA to the gemini surfactant solution to a charge ratio of 1:10 (DNA:surfactant).

[5] = Average membrane charge density calculation for plasmid DNA-gemini surfactant-DOPE nanoparticles; assay type: physicochemical; settings: calculated from head group areas
[6] = Small angle X-ray scattering (SAXS) of plasmid DNA-gemini surfactant-DOPE complexes; assay type: physicochemical; settings: plasmid DNA-gemini surfactant-DOPE complexes
Protocol: SAXS measurements were carried out at beamline X21 at the National Synchrotron Light Source at Brookhaven National Laboratory. Beamline X21 is based on a wiggler source, with a helium gas-cooled Si(111) monochromator selecting the photon energy. The X-ray beam is focused by a toroidal mirror into the experimental station. Three pairs of precision slits, positioned at 4 m, 1 m, and 5 cm upstream of the sample, define the beam. The scattering pattern is recorded using a 13 cm Mar CCD detector (Mar USA, Evanston, Ill.) located 1.26 m (calibrated with the scattering pattern of silver behenate) downstream of the sample. The measurements were performed with 12 KeV x-rays and the data covered a q-range from 0.008 Å^−1 to 0.375 Å^−1. All beam paths are under vacuum, except at the sample position, where the sample is in air, and kapton windows terminate the vacuum beam paths. Samples were loaded into 1.5 mm capillaries (Charles Supper #15-BG, Natick Mass.) and data recorded at room temperature. All spectra were processed to remove background contributions by subtracting the scattering profile obtained for a water-filled capillary. Peak fitting was carried out using the open-sources software package “fityk” (available at http://www.unipress.waw.pl/fityk/; last accessed on Jul. 5, 2007) using multiple Gaussian functions.
Solutions for SAXS analysis were prepared by addition of appropriate amounts of stock surfactant, DNA, and DOPE solutions, followed by sonication (to ensure complete mixing) where appropriate. The pGTmCMV.IFN-GFP plasmid DNA was used in the SAXS studies. The final concentrations of DNA and DOPE were 0.075 mM (50 μg/mL) and 1.00 mM (0.75 mg/mL), respectively. The concentration of gemini surfactant was adjusted as needed to obtain the desired 1:10 DNA:surfactant charge ratio. Preliminary x-ray scattering studies indicated these concentrations to be too dilute to give good scattering signals; as a result, the samples were concentrated 5× by evaporation.

[7] = Size (hydrodynamic radius) and zeta potential as a function of pH; assay type: physicochemical; settings: PGL complexes
Protocol: Determinations of size (hydrodynamic radius, RH) and zeta potential (ζ) as a function of pH were carried out using a Malvern Instruments (Worcestershire, UK) ZetaSizer NanoZs with MPT-2 auto-titrator attachment. 10 mL of the desired sample was placed in the titration cell of the auto-titrator and samples were titrated (in 0.2-0.5 pH unit increments) with 0.1 M NaOH and 0.1 M HCl over the desired pH range. Size and zeta potential measurement were made in triplicate at each pH point, and the reported values represent the average±standard error. pH titrations of aqueous gemini surfactant solutions were made at a surfactant concentration of 2.00 mM, above the critical micelle concentration in all cases.
as §1

[8] = test system: cultured cells; assay: Viability of cells following transfection; assay type: cell-based; settings: for cell viability / toxicity (in words): after transfection with plasmid DNA-gemini surfactant-DOPE
Protocol: Ideal transfection reagents are minimally toxic and/or disruptive to cells. Accordingly, the N-substituted surfactants were tested for toxicity in cultured cells. The viability of cells following transfection with either plasmid DNA-gemini surfactant-DOPE or Lipofectamine Plus are shown in FIG. 3. The aza-substituted surfactants 12-5N-12, 12-8N-12, and 12-7N-12 had similar toxicity compared to the Lipofectamine Plus reagent, with cell viability around 80% of the controls (i.e., no treatment or plasmid DNA alone; p>0.05).

[9] = previous work [11]; cited from earlier work

| DNA distortion from CD spectrum (in words) [4] | membrane charge density σM [5] | d-spacing of main scattering peak [6] | pH of transition in particle size and zeta potential [7] | phase / morphology of lipid bilayers from scattering pattern (in words) [6] | SMILES | increase in transfection compared to the corresponding aza-substituted compound [1] | transfection efficiency (in words) ([1]; PGL complexes, with DOPE added) | transfection efficiency ([1]; PGL system (plasmid DNA-gemini surfactant-DOPE), charge ratio 1:10) | increase in transfection compared to an un-substituted gemini surfactant ([1]; p<0.01) | Head group area a0 [2] | transfection efficiency (in words) [3] | cell viability / toxicity (in words) [8] | cell viability ([8]; after transfection with plasmid DNA-gemini surfactant-DOPE or Lipofectamine Plus, relative to controls (no treatment or plasmid DNA alone)) | transfection efficiency within the 12-s-12 series, s=3-8 (in words) [9] |
| --- | --- | --- | --- | --- | --- | --- | --- | --- | --- | --- | --- | --- | --- | --- |
| greatest DNA distortion | 0.920 ×10^−2 e/Å^2 | 59.4 Å | 5.5 | – | CCCCCCCCCCCC[N+](C)(C)CCCNCCC[N+](C)(C)CCCCCCCCCCCC.[Br-].[Br-] [12-7NH-12, 1,9-bis(dodecyl)-1,1,9,9-tetramethyl-5-imino-1,9-nonanediammonium dibromide] | 3 fold | enhanced transfection efficiency compared to the un-substituted surfactant, 12-3-12; also recorded: higher levels of transfection efficiency compared to the non-substituted gemini surfactant 12-3-12; also recorded: comparable to that of Lipofectamine Plus | 6.7±0.5 ng luciferase/2×10^4 cells | 9 fold | 1.56 ± 0.04 nm^2/molecule | significantly higher level of transfection efficiency | not statistically significantly different from that of the 12-5N-12 and 12-8N-12 | about 70% | – |
| – | – | – | – | predominantly hexagonal morphology | CCCCCCCCCCCC[N+](C)(C)CCC[N+](C)(C)CCCCCCCCCCCC.[Br-].[Br-] [12-3-12, reference compound] | – | – | – | – | – | low transfection efficiency | not statistically different from the control | – | best transfection efficiency; also recorded: most efficient transfection agent |
